Assay results taken from patent US20160000912A1, “COMBINATION THERAPY OF A TYPE II ANTI-CD20 ANTIBODY WITH A PROTEASOME INHIBITOR” (Roche Glycart AG, priority 2007, published 2016).

Columns and labels:
[1] = system: SU-DHL-4 human Non-Hodgkin-Lymphoma (NHL) cells; assay: Tumor growth inhibition study in vivo, SU-DHL-4 xenografts; parameters: species or system SCID beige mice; settings: 1 mg/kg i.p. once weekly
Procedure: Type II anti-CD20 antibody B-HH6-B-KV1 GE(=humanized B-Ly1, glycoengineered B-HH6-B-KV1, see WO 2005/044859 and WO 2007/031875) was provided as stock solution (c=9.4 mg/ml) from GlycArt, Schlieren, Switzerland. Antibody buffer included histidine, trehalose and polysorbate 20. Antibody solution was diluted appropriately in PBS from stock for prior injections.
Proteasome inhibitor bortezomib was purchased as clinical formulation from Janssen-Cilag GmbH, Neuss, Germany. Dilution was adjusted from reconstituted stock solution.
SU-DHL-4 human Non-Hodgkin-Lymphoma (NHL) cells (Chang, H., et al., Leuk Lymphoma. 8 (1992) 129-36) were kindly provided from DSMZ, Braunschweig. Tumor cell line was routinely cultured in RPMI medium (PAA, Laboratories, Austria) supplemented with 10% fetal bovine serum (PAA Laboratories, Austria) and 2 mM L-glutamine, at 37° C. in a water-saturated atmosphere at 5% CO2. Passage 5 was used for transplantation. […]
Animals were controlled daily for clinical symptoms and detection of adverse effects. For monitoring throughout the experiment body weight of animals was documented two times weekly and tumor volume was measured by caliper after staging. […]

[2] = target: T1, CD20 on Raji cells (ATCC-No. CCL-86) (Homo sapiens, UniProt P11836); assay: Ratio of the binding capacities to CD20 on Raji cells compared to rituximab (direct immunofluorescence, Cy5, FACSArray); settings: Cy5-conjugated antibodies
T1 construct: generated by direct immunofluorescence using the Burkitt's lymphoma cell line Raji (ATCC-No. CCL-86); host or cells: Raji cells (Burkitt's lymphoma)
T1 sequence (P11836 1-297): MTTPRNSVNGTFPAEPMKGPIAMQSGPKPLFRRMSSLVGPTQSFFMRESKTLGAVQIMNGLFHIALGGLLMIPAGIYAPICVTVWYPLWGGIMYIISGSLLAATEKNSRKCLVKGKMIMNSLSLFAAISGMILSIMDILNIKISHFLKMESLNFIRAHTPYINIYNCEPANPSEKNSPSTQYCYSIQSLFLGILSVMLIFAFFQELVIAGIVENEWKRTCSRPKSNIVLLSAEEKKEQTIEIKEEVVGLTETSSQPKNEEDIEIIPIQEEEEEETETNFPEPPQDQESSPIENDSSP
Procedure: MFI is the mean fluorescent intensity. The “Cy5-labeling ratio” as used herein means the number of Cy5-label molecules per molecule antibody.
Raji cells (ATCC-No. CCL-86) were maintained in culture in RPMI-1640 medium (PanBiotech GmbH, Cat.-No. PO4-18500) containing 10% FCS (Gibco, Cat.-No.10500-064). […] 5*10^5 cells per sample were stained for 30 min at 4° C. Afterwards, cells were washed in culture medium. Propidium iodide (PI) staining was used to exclude dead cells.
Then the ratio of the binding capacities to CD20 on Raji cells (ATCC-No. CCL-86) is calculated according to the following formula: […]

Compound	antitumor activity as single agent (in words) [1]	binding capacity compared to rituximab (in words) [2]
CC(C)C[C@H](NC(=O)[C@H](Cc1ccccc1)NC(=O)c1cnccn1)B(O)O [bortezomib]	only slightly active	
B-HH6-B-KV1: Type II anti-CD20 antibody (humanized B-Ly1 antibody) of Example 2; FIG. 2 legend calls it B-HH6-B-KV1 GE		reduces binding capacity compared to rituximab
